# Test system: zebrafish embryos
# Assay: Zebrafish embryo phenotypic assay (ZF)
# Format: in vivo
# Conditions: wild-type embryonic zebrafish, dosed 5 hpf
# Experimental: All zebrafish experiments were approved by Vanderbilt University Institutional Animal Care and Use Committee. Wild-type zebrafish of AB strain were maintained using standard protocols. Chemical screen for small molecules was performed as previously described. Briefly, pairs of zebrafish were mated, and fertilized eggs were arrayed in 96-well microtiter plates (5 embryos/well) containing 250 μl E3 water. At ˜4-hpf, small molecule library from Vanderbilt High Throughput Screening Facility was added to each well to the final concentration of 5 μM. Embryos were incubated at 28.5° C. until 24 and 48-hpf, when they were examined for gross morphologic changes indicative of disruption in embryonic patterning. A total of ˜30,000 compounds were screened.
# ZF refers to wild-type embryonic zebrafish phenotypic assay involving dosing n=˜10 embryos in E3 egg water with compound from either a stock of 1 mM or 10 mM in DMSO at 5 hours post-fertilization and observing at 24, 48, and 72 hours post-fertilization.
row,SMILES,ZF Phenotype EC100 [µM]
1,C=C(C)Cn1c(SCC(=O)c2cc3ccccc3s2)nc2sc3c(c2c1=O)CCCC3 [KK-14-093-1],>50
2,C=C(C)Cn1c(SCc2nc3cc(OC)ccc3o2)nc2sc3c(c2c1=O)CCCC3 [KK-14-096-2],>50
3,O=c1c2c3c(sc2[nH]c(=S)n1C1CC1)CNCC3 [KYK-1-99],>50
4,O=C(CSc1nc2sc3c(c2c(=O)n1-c1ccc(Cl)cn1)CCCC3)c1cccs1 [JEH-1-050-2],25
5,O=C(CSc1nc2sc3c(c2c(=O)n1C1CC1)CCN(C(=O)C1CC1)C3)c1cccs1 [JEH-1-124],>50
6,O=C(CSc1nc2sc3c(c2c(=O)n1C1CC1)CCN(S(=O)(=O)c1ccc([N+](=O)[O-])cc1)C3)c1ccccc1 [KYK-1-61],>50
7,COC(=O)c1c(NC(=S)SC)sc2c1CCNC2 [KYK-1-87],>50
8,CC(C1CC1)n1c(SCC(=O)c2ccccc2)nc2sccc2c1=O (centres unmarked) [JEH-2-003],30
9,CSc1nc2sccc2c(=O)n1C1CC1 [JEH-1-131-2],>50
10,O=C(CSc1nc2sc3c(c2c(=O)n1C1CC1)CCNC3)c1cccs1 [JEH-1-097],>50
11,CC(C1CC1)n1c(SCC(=O)Nc2ccccc2O)nc2sccc2c1=O (centres unmarked) [JEH-2-041-2],30
12,Cn1cnc(S(=O)(=O)N2CCc3c(sc4nc(SCC(=O)c5ccccc5)n(C5CC5)c(=O)c34)C2)c1 [KYK-1-66],>50
13,O=C(CSc1nc2sccc2c(=O)n1CC1CC1)c1ccccc1 [JEH-2-007-1],10
14,C#CCNC(=O)CSc1nc2sc3c(c2c(=O)n1CC(=C)C)CCCC3 [JEH-2-060],30
15,O=C(O)c1ccc(-n2c(SCC(=O)c3cccs3)nc3sc4c(c3c2=O)CCCC4)cc1 [JEH-1-066],>50
16,COC(=O)c1cc(-c2ccc(F)cc2)sc1NC(=S)NC1CC1 [JEH-2-026],25
17,O=C(CSc1nc2sc3c(c2c(=O)n1-c1ccccn1)CCCC3)c1cccs1 [JEH-1-034],1
18,CC(C1CC1)n1c(SCC(=O)Nc2ccccn2)nc2sccc2c1=O (centres unmarked) [JEH-2-041-1],20
19,O=C(CSc1nc2sc3c(c2c(=O)n1C1CC1)CCN(Cc1ccco1)C3)c1ccccc1 [KYK-1-103-1],>50

# Test system: Hedgehog signaling (TM3-Gli-Luc)
# Assay: TM3-Gli-Luc luciferase reporter assay stimulated with 20 nM SAG
# Format: cell-based
# Conditions: not given
# Experimental: TM3-Gli-Luc cells were maintained on sterile 0.1% gelatin (from porcine skin, Type A, prepared in MilliQ water, autoclaved, then sterile-filtered) in 1:1 Dulbecco's Modified Eagle Medium (DMEM)/F12 supplemented with 5% horse serum, 2.5% fetal bovine serum (FBS), and 15 mM HEPES, hereafter referred to as TM3 Culture Medium. For small molecule evaluation, TM3-Gli-Luc cells were assayed on 0.1% gelatin in DMEM/F12 supplemented with 2.5% FBS and 15 mM HEPES, hereafter referred to as TM3Luc Medium. Sufu^−/− cells were maintained in DMEM supplemented with 4.5 g/L D-glucose, L-glutamine, 25 mM HEPES, and 10% FBS, hereafter referred to as D10 FBS. For small molecule evaluation, Sufu^−/− cells were assayed in DMEM supplemented with 4.5 g/L D-glucose, L-glutamine, 25 mM HEPES, and 0.5% FBS, hereafter referred to as D0.5 FBS. All cells were cultured at 37° C. with a 5% CO2 atmosphere.
# On the day of cell plating, 96-well plates were coated with 50 μL/well of sterile 0.1% gelatin for 5 minutes then aspirated and replaced with 50 μL/well of TM3 Culture Medium. TM3-Gli-Luc cells were seeded at a density of 5,000 cells/well in TM3 Culture Medium and incubated for 24 hours. A master mix of 20 nM SAG in TM3Luc Medium was prepared, and small molecule solutions were prepared by adding the desired amount of compound from 10 mM DMSO stock to TM3Luc Medium containing 20 nM SAG. Negative control was prepared by adding an equi-volume amount of DMSO as compared to small molecule treated conditions to TM3Luc Medium not containing SAG. Cell plating medium was aspirated and replaced with 100 μL/well of prepared small molecule-containing media, and plates were incubated for 48 hours before proceeding to luciferase activity and cell viability reading.
# TM3Luc Medium from compound treated plates was aspirated and replaced with 82 μL/well of Glo Lysis Buffer (Promega, Madison, Wis., USA), and plates were shaken at 300 rpm and room temperature for 12 minutes. Lysate was split between two white 96-well plates, 45 μL/well and 25 μL/well for luciferase reading and cell viability respectively. For luciferase activity monitoring, 45 μL/well of Steady Glo (Promega, Madison, Wis., USA) was added to 45 μL/well of cell lysate, incubated at room temperature for 5 minutes, then luminescence was measured on a Turner Biosystems Modulus Microplate Reader (Sunnyvale, Calif., USA) with an integration time of 0.5 seconds. For cell viability measurement, 25 μL/well of Cell Titer Glo (Promega, Madison, Wis., USA) (prepared by 1:10 dilution with Glo Lysis Buffer) was added to 25 μL/well of cell lysate, incubated at room temperature for 5 minutes, then luminescence was measured as above.
# Luciferase activity data (Steady Glo) was divided by corresponding cell viability data (Cell Titer Glo) to arrive at a live cell number-normalized luciferase activity reading. The average of negative control data (DMSO treated) was subtracted from all wells, and percent activity was calculated by dividing all wells by the positive control (SAG treated) average. […] At least two independent assays tested on separate days were averaged to provide EC50±standard error of the mean.
row,SMILES,"TM3 G8 Luciferase % Inh., 2 pM [%]"
1,C=C(C)Cn1c(SCC(=O)N2CCCC[C@H]2C)nc2sc3c(c2c1=O)CCCC3 [JEH-4-136],44.3

# Same assay, conditions: 0.5 pM as printed
row,SMILES,"TM3 G8 Luciferase % Inh., 0.5 pM [%]"
1,C=C(C)Cn1c(SCC(=O)N2CCCC[C@H]2C)nc2sc3c(c2c1=O)CCCC3 [JEH-4-136],3.7

# Same assay, conditions: 20 nM SAG
row,Hh inhibitory activity / potency in words,SMILES
1,complete loss of inhibition,O=C(COc1nc2sccc2c(=O)n1C1CC1)c1ccccc1 [Formula 22a]
2,complete loss of inhibition,O=C(CNc1nc2sccc2c(=O)n1C1CC1)c1ccccc1 [Formula 22b]
3,complete loss of activity,C=C(C)Cn1c(SCC(=O)c2cccs2)nccc1=O [Formula 14a]
4,only modest potency reductions,CC(O)(CSc1nc2sccc2c(=O)n1C1CC1)c1ccccc1 (centres unmarked) [Formula 20b]
5,complete loss of Hh inhibitory activity,C=C(C)Cn1c(SCC(=O)c2cccs2)nccc1=O [Formula 12]

# Same assay, conditions: 20 nM SAG; read-out: EC50
row,SMILES,EC50 [µM]
1,C=C(C)Cn1c(SCC(=O)c2cccs2)nc2sc3c(c2c1=O)CCCC3 [EGM1],1.34

# Same assay, conditions: TM3-Gli-Luc reporter line stimulated with 20 nM SAG; mean ± SEM; Table 13; read-out: TM3-Gli-Luc EC50
row,EC50 [µM],SMILES
1,> 20,C=C(C)Cn1c(SCC(=O)c2cccs2)nccc1=O [Formula 14a]
2,> 20,C=C(C)Cn1c(SCC(=O)c2cccs2)nccc1=O [Formula 12]

# Same assay, conditions: Table 9A; read-out: TM3 G8 Luciferase EC 50
row,EC50 [µM],SMILES
1,2.51,C=C(C)Cn1c(SCC(=O)c2cccs2)nc2sc3c(c2c1=O)CCSC3 [JEH-4-143]
2,6.03,O=C(CSc1nc2sc3ccccc3c2c(=O)n1C1CC1)N1CCCCC1 [JEH-4-055-2]
3,5.5,C=C(C)Cn1c(SCCc2cccs2)nc2sc3c(c2c1=O)CCCC3 [JEH-4-135]
4,25,C=C(C)Cn1c(NCC(=O)c2cccs2)nc2sc3c(c2c1=O)CCCC3 [JEH-5-052]
5,16.6,O=C(CSc1nc2sc3ccccc3c2c(=O)n1C1CC1)c1ccccc1 [JEH-4-055-1]
6,31.6,Cc1sc2nc(SCC(=O)c3ccccc3)n(C3CC3)c(=O)c2c1C [JEH-5-087]

# Reference: patent publication US10329304B2, “Compounds and methods for inhibition of hedgehog signaling and phosphodiesterase” (Vanderbilt University, priority 2014, dated 2019)
